{"source": "patent US10159672B2", "about": "(PARION SCIENCES, INC., priority 2011, dated 2018)", "key": {"ENaC": {"molecular_target": "T1, ENaC (Canis lupus familiaris, UniProt A0A8I3MKE6+A0A8I3Q679+Q95165)", "T1 construct": "using primary cultures of canine bronchial epithelial cells; endogenous in cells; host or cells: primary canine bronchial epithelial cells cultured at air-liquid interface", "T1 sequence (A0A8I3Q679 1-649)": "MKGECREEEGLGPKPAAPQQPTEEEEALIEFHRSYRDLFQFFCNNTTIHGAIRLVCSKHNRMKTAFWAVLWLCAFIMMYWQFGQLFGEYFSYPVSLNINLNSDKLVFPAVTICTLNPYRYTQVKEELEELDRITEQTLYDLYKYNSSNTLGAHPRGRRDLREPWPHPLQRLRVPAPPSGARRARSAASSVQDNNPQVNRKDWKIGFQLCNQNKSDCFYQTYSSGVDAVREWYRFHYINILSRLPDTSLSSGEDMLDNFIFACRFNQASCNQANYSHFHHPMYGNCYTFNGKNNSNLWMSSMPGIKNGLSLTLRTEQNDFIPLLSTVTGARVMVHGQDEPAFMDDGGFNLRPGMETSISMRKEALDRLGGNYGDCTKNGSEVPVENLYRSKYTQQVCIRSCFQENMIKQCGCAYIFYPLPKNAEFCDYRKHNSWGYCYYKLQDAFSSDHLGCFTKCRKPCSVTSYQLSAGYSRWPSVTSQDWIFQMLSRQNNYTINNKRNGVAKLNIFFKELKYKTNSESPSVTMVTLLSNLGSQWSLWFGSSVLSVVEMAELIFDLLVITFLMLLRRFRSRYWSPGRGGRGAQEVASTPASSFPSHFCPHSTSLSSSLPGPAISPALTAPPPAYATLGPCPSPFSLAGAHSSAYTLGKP", "T1 sequence (Q95165 1-641)": "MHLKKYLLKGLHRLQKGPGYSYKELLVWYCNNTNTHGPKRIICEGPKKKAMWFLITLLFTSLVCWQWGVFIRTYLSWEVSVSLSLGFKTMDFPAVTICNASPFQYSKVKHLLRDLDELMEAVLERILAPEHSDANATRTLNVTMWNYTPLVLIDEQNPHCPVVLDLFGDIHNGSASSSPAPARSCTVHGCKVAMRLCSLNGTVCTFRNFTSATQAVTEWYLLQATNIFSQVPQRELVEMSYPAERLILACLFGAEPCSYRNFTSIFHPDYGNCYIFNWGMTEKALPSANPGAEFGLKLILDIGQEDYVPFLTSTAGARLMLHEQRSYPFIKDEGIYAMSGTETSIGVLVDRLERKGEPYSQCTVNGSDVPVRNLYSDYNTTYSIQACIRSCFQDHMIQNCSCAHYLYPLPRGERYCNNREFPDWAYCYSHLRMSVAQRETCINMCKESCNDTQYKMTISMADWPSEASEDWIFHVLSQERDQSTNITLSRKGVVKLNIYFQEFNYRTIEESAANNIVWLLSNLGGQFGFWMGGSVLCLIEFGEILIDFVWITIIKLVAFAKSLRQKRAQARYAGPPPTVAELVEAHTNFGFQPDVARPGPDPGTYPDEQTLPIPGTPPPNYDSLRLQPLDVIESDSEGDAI", "T1 sequence (A0A8I3MKE6 1-646)": "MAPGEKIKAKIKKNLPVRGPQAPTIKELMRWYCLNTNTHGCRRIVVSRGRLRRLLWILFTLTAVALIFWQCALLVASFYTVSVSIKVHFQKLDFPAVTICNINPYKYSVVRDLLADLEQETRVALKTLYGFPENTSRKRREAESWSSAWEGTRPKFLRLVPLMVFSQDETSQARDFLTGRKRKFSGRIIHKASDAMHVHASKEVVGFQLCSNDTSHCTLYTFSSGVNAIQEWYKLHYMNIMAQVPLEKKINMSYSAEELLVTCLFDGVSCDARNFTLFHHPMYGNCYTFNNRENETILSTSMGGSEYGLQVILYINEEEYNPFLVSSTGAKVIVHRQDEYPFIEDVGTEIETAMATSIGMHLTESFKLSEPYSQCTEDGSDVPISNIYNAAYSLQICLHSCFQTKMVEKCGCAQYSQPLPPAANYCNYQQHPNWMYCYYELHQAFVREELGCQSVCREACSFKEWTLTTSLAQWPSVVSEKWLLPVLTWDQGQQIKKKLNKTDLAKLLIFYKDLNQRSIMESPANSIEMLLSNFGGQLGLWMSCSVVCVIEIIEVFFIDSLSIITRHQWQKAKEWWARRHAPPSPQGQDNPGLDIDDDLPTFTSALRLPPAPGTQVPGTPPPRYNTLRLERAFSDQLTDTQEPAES", "experiment": "In vitro sodium channel blocking activity and reversibility (short circuit current, Ussing chambers)", "assay_type": "cell-based, canine", "procedure": "One assay used to assess mechanism of action and/or potency of the compounds of the present invention involves the determination of lumenal drug inhibition of airway epithelial sodium currents measured under short circuit current (ISC) using airway epithelial monolayers mounted in Ussing chambers. Cells obtained from freshly excised human, dog, sheep or rodent airways are seeded onto porous 0.4 micron Snapwell™ Inserts (CoStar), cultured at air-liquid interface (ALI) conditions in hormonally defined media, and assayed for sodium transport activity (ISC) while bathed in Krebs Bicarbonate Ringer (KBR) in Using chambers. All test drug additions are to the lumenal bath with half-log dose addition protocols (from 1×10^−11 M to 3×10^−5 M), and the cumulative change in ISC (inhibition) recorded. All drugs are prepared in dimethyl sulfoxide as stock solutions at a concentration of 1×10^−2 M and stored at −20° C. […] After the maximal concentration ([…]) is administered, the lumenal bath is exchanged three times with fresh drug-free KBR solution, and the resultant ISC measured after each wash for approximately 5 minutes in duration. Reversibility is defined as the percent return to the baseline value for sodium current after the third wash. All data from the voltage clamps are collected via a computer interface and analyzed off-line.\nDose-effect relationships for all compounds are considered and analyzed by the Prism 3.0 program. […] The potency of the sodium channel blocking activity of representative compounds in freshly excised cell from canine airways is shown in Table 2."}, "ExLac Rats": {"test_system": "ExLac Rats", "experiment": "Phenol red thread (PRT) measurement of tear output in ExLac rats", "assay_type": "in vivo, Sprague Dawley", "procedure": "Procedures for Phenol Red Thread (PRT) Measurement of Tear Output:\nAnimal Species/Strain: Rats, Sprague Dawley (SD); Lacrimal gland surgically removed (ExLac).\nAnimal Number/Sex: 3-4 females/group\nTest Article Formulation: All stock solutions for each dosing arm were prepared no more than 48 hours prior to the start of the study. The concentration of ENaC blockers in all test article solutions were confirmed by spectrophotometry.\nTest Article Administration: Both the ipsilateral and contralateral eyes were dosed with 5 […]1 of test article solution.\nPhenol Red Thread (PRT) Test: Tear production was measured using the ZoneQuick cotton thread with impregnated phenol red dye. The folded end of the thread was held in the lateral-ventral conjunctival cul-de-sac for 10 seconds. The length of tear wicking onto the thread was determined by measuring the length of the thread that changes color from yellow to red. Use of a stereomicroscope was assist in the accurate measurement (recorded in millimeters) of the wicking/color change."}}, "data": [{"compound": "CN(C)C(=O)[C@H](CCCCNC(=N)N)NC(=O)[C@H](CCc1ccc(CCCCNC(=N)NC(=O)c2nc(Cl)c(N)nc2N)cc1)N(C)C", "note": "[Compound I, 3,5-diamino-6-chloro-N-(N-(4-(4-((S)-3-(dimethylamino)-4-((S)-1-(dimethylamino)-6-guanidino-1-oxohexan-2-ylamino)-4-oxobutyl)phenyl)butyl)carbamimidoyl)pyrazine-2-carboxamide]", "values": [{"measurement": "Potency compared to amiloride", "setting": "ENaC; Ussing chamber, primary cultures of canine bronchial epithelial cells", "value": "> 100", "unit": "fold"}, {"measurement": "IC50", "setting": "ENaC; canine bronchial epithelial cells, n=5, read-out: Potency (IC50) on Canine Bronchial Epithelial Cells", "value": 5.3, "unit": "nM"}, {"measurement": "Emax", "setting": "ENaC; with 3 washes, n=3, read-out: Reversal of Maximal Effect on Canine Bronchial Epithelial Cells (effect lost)", "value": "6.8 ± 5.1", "unit": "%"}, {"measurement": "Tear output (PRT) in ExLac rats, duration of effect", "setting": "ExLac Rats; 2 hours post-dose, all dose groups except 0.1 mM", "value": "still observed"}, {"measurement": "Tear output (PRT) in ExLac rats", "setting": "ExLac Rats; all concentrations, 15 minutes post-dose, n=4", "value": "increases tear output in ExLac rats 15 minutes post-dose at or slightly below tear output values observed for normal rats"}, {"measurement": "Tear output, baseline corrected data, significance vs vehicle", "setting": "ExLac Rats; single 10 mM dose, baseline corrected, p <0.03", "value": "statistically significant at all post-dose time points"}, {"measurement": "Tear volume relative to vehicle controls", "setting": "ExLac Rats; single 10 mM dose, n=3", "value": "increased tear volume relative to vehicle controls"}, {"measurement": "Tear output, raw data, significance vs vehicle", "setting": "ExLac Rats; single 10 mM dose, raw PRT values", "value": "not significant beyond 60 minutes"}]}]}
